Biological target: human Cav2.2 (Homo sapiens, UniProt Q00975)
Assay: Assessment of calcium channel activity using FLIPR (Ca2+ influx in IMR32 cells)
Format: cell-based
Conditions: 3 minute pre-incubation with compound (*), 2 μM nifedipine, depolarized with 80 mM KCl
Description: (i) In Vitro Methods—Assessment of Calcium Channel Activity Using FLIPR:
The IMR32 cells were maintained in MEM media containing 10% (v/v) FBS, 1% (v/v) antibiotic/antimitotic, 1% (v/v) sodium pyruvate and 1% (v/v) MEM NEAA. Following dissociation in 0.05% (v/v) trypsin/EDTA, cells were seeded into black 1×96-well plates (Corning Cellbind) at a density of 1-1.2×10^5 cells/well and incubated in the maintenance media above for 48 hours at 37° C. […] To determine the IC50 values, the percent inhibition of the compound at each concentration was determined relative to the activity in the absence of inhibitor, and data was fitted using non-linear regression sigmoidal dose response curve analysis with GraphPad Prism®.

Chain of human Cav2.2 (Q00975 whole entry): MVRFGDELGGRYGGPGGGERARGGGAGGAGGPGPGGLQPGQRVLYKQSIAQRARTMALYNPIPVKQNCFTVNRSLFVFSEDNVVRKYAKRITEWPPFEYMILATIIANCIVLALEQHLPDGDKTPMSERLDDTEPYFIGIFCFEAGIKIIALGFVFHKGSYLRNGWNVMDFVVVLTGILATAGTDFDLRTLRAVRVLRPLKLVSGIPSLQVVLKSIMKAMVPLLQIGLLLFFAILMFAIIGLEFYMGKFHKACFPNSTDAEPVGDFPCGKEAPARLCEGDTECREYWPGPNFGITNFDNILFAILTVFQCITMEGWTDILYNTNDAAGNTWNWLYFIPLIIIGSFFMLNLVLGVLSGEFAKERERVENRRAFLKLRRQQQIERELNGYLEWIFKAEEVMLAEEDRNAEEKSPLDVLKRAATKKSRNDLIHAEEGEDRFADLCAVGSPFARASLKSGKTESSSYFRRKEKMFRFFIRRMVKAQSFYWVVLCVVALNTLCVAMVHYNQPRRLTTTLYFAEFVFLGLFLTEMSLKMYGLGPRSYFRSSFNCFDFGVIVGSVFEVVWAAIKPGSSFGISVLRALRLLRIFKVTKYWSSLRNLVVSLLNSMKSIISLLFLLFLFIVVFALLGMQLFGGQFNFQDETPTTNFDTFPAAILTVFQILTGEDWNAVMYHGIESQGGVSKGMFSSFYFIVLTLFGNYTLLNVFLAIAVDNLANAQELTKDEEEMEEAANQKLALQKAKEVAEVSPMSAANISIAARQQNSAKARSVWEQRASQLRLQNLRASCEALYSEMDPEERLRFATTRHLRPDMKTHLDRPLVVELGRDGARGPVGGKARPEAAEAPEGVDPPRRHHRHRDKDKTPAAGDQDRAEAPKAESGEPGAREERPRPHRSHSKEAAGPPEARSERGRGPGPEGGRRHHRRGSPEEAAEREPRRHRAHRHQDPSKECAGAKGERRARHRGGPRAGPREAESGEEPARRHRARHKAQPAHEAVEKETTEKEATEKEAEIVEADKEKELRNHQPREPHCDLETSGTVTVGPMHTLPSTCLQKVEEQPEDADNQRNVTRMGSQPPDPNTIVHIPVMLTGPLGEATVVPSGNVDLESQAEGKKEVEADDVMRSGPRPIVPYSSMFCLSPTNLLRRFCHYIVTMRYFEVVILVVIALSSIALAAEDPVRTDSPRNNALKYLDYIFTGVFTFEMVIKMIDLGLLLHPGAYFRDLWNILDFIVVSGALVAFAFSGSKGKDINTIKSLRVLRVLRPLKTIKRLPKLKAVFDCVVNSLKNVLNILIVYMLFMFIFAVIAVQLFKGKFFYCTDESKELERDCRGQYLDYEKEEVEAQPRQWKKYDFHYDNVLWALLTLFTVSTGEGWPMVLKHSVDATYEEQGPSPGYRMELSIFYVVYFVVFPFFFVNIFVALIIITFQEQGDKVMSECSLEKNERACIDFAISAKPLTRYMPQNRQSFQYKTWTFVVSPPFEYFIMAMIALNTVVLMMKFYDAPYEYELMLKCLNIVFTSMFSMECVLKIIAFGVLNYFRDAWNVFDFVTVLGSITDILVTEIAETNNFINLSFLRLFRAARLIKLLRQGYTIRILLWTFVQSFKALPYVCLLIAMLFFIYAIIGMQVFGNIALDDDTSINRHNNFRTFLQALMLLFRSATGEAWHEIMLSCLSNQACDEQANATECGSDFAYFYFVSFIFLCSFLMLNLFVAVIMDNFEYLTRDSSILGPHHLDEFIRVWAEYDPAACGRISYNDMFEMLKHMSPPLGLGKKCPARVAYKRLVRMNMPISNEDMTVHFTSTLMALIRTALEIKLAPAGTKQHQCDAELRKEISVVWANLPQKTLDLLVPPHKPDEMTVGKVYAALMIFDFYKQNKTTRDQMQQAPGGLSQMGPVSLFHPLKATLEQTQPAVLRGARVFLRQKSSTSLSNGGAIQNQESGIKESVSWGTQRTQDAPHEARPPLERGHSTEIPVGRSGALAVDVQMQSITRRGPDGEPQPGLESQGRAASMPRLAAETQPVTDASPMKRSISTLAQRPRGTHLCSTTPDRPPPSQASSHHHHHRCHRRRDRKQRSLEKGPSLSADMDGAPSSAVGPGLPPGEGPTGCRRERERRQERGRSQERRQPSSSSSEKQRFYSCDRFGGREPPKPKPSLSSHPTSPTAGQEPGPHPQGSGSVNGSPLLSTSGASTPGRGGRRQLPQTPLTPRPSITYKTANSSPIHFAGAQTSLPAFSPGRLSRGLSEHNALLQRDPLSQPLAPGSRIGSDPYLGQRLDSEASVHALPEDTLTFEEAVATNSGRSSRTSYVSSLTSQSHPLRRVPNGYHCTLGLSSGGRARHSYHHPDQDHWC
Chain of human Cav2.2 (P54289 25-946 partner limits assumed): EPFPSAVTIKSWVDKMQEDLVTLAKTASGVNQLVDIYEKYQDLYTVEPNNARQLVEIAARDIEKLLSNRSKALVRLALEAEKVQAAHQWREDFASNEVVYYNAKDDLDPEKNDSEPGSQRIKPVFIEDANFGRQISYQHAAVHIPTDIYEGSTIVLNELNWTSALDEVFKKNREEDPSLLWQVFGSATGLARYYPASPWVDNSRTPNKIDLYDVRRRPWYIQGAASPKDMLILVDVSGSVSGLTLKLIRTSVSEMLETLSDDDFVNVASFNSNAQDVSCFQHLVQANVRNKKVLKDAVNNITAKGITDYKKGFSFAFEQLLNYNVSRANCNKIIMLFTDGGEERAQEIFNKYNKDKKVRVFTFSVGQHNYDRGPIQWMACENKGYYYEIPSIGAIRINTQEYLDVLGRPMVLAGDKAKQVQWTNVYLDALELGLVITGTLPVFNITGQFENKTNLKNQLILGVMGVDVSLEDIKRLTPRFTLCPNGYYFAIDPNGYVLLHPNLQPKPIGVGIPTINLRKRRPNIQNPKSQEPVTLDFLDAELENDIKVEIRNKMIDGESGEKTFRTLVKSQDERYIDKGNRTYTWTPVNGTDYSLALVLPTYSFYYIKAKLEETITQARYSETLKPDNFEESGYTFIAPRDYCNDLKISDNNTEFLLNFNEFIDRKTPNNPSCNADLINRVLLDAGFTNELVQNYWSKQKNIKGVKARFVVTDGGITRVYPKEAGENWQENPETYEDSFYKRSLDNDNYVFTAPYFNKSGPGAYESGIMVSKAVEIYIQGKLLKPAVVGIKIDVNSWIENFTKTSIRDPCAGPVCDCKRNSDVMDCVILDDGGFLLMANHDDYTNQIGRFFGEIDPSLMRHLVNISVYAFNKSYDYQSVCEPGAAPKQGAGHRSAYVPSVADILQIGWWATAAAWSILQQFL
Chain of human Cav2.2 (P54289 947-1103 partner limits assumed): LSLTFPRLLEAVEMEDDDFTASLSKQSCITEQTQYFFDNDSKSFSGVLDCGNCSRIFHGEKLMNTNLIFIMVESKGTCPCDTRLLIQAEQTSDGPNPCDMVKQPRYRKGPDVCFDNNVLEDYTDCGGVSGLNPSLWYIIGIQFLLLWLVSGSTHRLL
Chain of human Cav2.2 (P54284 whole entry partner): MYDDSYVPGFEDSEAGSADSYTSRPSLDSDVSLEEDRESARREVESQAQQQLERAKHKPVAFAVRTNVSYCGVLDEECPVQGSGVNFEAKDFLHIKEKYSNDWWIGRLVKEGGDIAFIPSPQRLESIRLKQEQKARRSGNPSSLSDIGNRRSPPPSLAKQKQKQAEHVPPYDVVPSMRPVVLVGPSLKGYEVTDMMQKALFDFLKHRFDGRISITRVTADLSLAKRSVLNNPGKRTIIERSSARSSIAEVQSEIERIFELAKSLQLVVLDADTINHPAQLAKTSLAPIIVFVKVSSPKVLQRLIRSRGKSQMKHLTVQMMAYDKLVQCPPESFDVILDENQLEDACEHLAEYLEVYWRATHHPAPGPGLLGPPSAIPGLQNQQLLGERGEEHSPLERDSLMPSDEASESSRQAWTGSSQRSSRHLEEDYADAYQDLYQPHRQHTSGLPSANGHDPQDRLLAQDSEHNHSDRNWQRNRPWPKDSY

| SMILES | IC50 [nM] |
| --- | --- |
| O=C(N[C@H]1CC[C@H]2CN(Cc3ccccc3)C[C@H]21)C1(c2ccccc2)CCCC1 (relative stereo) [Example 1, N-[(3aS*,4S*,6aR*)-2-benzyloctahydrocyclopenta[c]pyrrol-4-yl]-1-phenylcyclopentanecarboxamide] | 3500 |
| O=C(N[C@@H]1CC[C@H]2CN(Cc3ccccc3)C[C@H]21)C1(c2ccccc2)CCCC1 (relative stereo) [Example 2, N-[(3aS*,4R*,6aR*)-2-benzyloctahydrocyclopenta[c]pyrrol-4-yl]-1-phenylcyclopentanecarboxamide] | 4200 |
| CC(C)C(C(=O)N[C@@H]1CC[C@@H]2CN(Cc3ccccc3)C[C@@H]21)c1ccccc1 (relative stereo) [Example 5, N-[(3aR*,4R*,6aS*)-2-benzyloctahydrocyclopenta[c]pyrrol-4-yl]-3-methyl-2-phenylbutanamide] | 3800 |
| CC(C)C(C(=O)N[C@H]1CC[C@@H]2CN(Cc3ccccc3)C[C@@H]21)c1ccccc1 (relative stereo) [Example 6, N-[(3aR*,4S*,6aS*)-2-benzyloctahydrocyclopenta[c]pyrrol-4-yl]-3-methyl-2-phenylbutanamide] | 2200 |
| O=C(N[C@H]1CC[C@H]2CN(Cc3ccccc3)C[C@H]21)C(c1ccccc1)C1CCCC1 (relative stereo) [Example 7, N-[(3aS*,4S*,6aR*)-2-benzyloctahydrocyclopenta[c]pyrrol-4-yl]-2-cyclopentyl-2-phenylacetamide] | 1800 |
| O=C(N[C@H]1CC[C@H]2CN(Cc3ccccc3)C[C@H]21)C1(c2ccccc2)CCCCC1 (relative stereo) [Example 9, N-[(3aS*,4S*,6aR*)-2-benzyloctahydrocyclopenta[c]pyrrol-4-yl]-1-phenylcyclohexanecarboxamide] | 1800 |
| O=C(N[C@@H]1CC[C@H]2CN(Cc3ccccc3)C[C@H]21)C1(c2ccccc2)CCCCC1 (relative stereo) [Example 10, N-[(3aS*,4R*,6aR*)-2-benzyloctahydrocyclopenta[c]pyrrol-4-yl]-1-phenylcyclohexanecarboxamide] | 1300 |
| CCCC(CCC)C(=O)N[C@@H]1CC[C@H]2CN(Cc3ccccc3)C[C@H]21 [Example 21, N-[(3aS,4R,6aR)-2-benzyloctahydrocyclopenta[c]pyrrol-4-yl]-2-propylpentanamide] | 10100 |

Same assay, conditions: 60 minute pre-incubation with compound, 2 μM nifedipine, depolarized with 80 mM KCl

| IC50 [nM] | SMILES |
| --- | --- |
| 600 | CC(C)C(C(=O)N[C@H]1CC[C@H]2CN(Cc3cccc(C(F)(F)F)c3)C[C@H]21)c1ccccc1 (relative stereo) [Example 122, 3-methyl-2-phenyl-N-{(3aS*,4S*,6aR*)-2-[3-(trifluoromethyl)benzyl]octahydrocyclopenta[c]pyrrol-4-yl}butanamide] |
| 700 | O=C(N[C@H]1CC[C@H]2CN(Cc3cccc(C(F)(F)F)c3)C[C@H]21)C(C1CCCCC1)C1CCCCC1 (relative stereo) [Example 124, 2,2-dicyclohexyl-N-{(3aS*,4S*,6aR*)-2-[3-(trifluoromethyl)benzyl]octahydrocyclopenta[c]pyrrol-4-yl}acetamide] |
| 2800 | CCC(CC)C(=O)N[C@H]1CC[C@H]2CN(Cc3cccc(C(F)(F)F)c3)C[C@H]21 (relative stereo) [Example 125, 2-ethyl-N-{(3aS*,4S*,6aR*)-2-[3-(trifluoromethyl)benzyl]octahydrocyclopenta[c]pyrrol-4-yl}butanamide] |
| 1000 | CCCC(CCC)C(=O)N[C@H]1CC[C@H]2CN(Cc3cccc(C(F)(F)F)c3)C[C@H]21 (relative stereo) [Example 126, 2-propyl-N-{(3aS*,4S*,6aR*)-2-[3-(trifluoromethyl)benzyl]octahydrocyclopenta[c]pyrrol-4-yl}pentanamide] |
| 1500 | O=C(N[C@H]1CC[C@H]2CN(Cc3cccc(C(F)(F)F)c3)C[C@H]21)C1CCCCC1 (relative stereo) [Example 127, N-{(3aS*,4S*,6aR*)-2-[3-(trifluoromethyl)benzyl]octahydrocyclopenta[c]pyrrol-4-yl}cyclohexanecarboxamide] |
| 1000 | O=C(N[C@H]1CC[C@H]2CN(Cc3cccc(C(F)(F)F)c3)C[C@H]21)C1CCCCCC1 (relative stereo) [Example 128, N-{(3aS*,4S*,6aR*)-2-[3-(trifluoromethyl)benzyl]octahydrocyclopenta[c]pyrrol-4-yl}cycloheptanecarboxamide] |
| 2900 | O=C(N[C@H]1CC[C@H]2CN(Cc3cccc(C(F)(F)F)c3)C[C@H]21)C1CCCC1 (relative stereo) [Example 129, N-{(3aS*,4S*,6aR*)-2-[3-(trifluoromethyl)benzyl]octahydrocyclopenta[c]pyrrol-4-yl}cyclopentanecarboxamide] |
| 700 | O=C(CC(c1ccccc1)c1ccccc1)N[C@H]1CC[C@H]2CN(Cc3cccc(C(F)(F)F)c3)C[C@H]21 (relative stereo) [Example 131, 3,3-diphenyl-N-{(3aS*,4S*,6aR*)-2-[3-(trifluoromethyl)benzyl]octahydrocyclopenta[c]pyrrol-4-yl}propanamide] |
| 900 | O=C(N[C@H]1CC[C@H]2CN(Cc3cccc(C(F)(F)F)c3)C[C@H]21)C(c1ccccc1)c1ccccc1 (relative stereo) [Example 135, 2,2-diphenyl-N-{(3aS*,4S*,6aR*)-2-[3-(trifluoromethyl)benzyl]octahydrocyclopenta[c]pyrrol-4-yl}acetamide] |
| 1100 | O=C(N[C@H]1CC[C@H]2CN(Cc3cccc(C(F)(F)F)c3)C[C@H]21)C(c1ccc(F)cc1)c1ccc(F)cc1 (relative stereo) [Example 136, 2,2-bis(4-fluorophenyl)-N-{(3aS*,4S*,6aR*)-2-[3-(trifluoromethyl)benzyl]octahydrocyclopenta[c]pyrrol-4-yl}acetamide] |
| 600 | CC(C)C[C@H](NC(=O)OC(C)(C)C)C(=O)N[C@@H]1CC[C@@H]2CN(Cc3cccc(C(F)(F)F)c3)C[C@@H]21 (relative stereo) [Example 137, N^2-(tert-butyloxycarbonyl)-N^1-{(3aR*,4R*,6aS*)-2-[3-(trifluoromethyl)benzyl]octahydrocyclopenta[c]pyrrol-4-yl}-L-leucinamide] |
| 600 | O=C(CC(c1ccccc1)c1ccccc1)N[C@@H]1CC[C@H]2CN(Cc3cccc(C(F)(F)F)c3)C[C@H]21 (relative stereo) [Example 141, 3,3-diphenyl-N-{(3aS*,4R*,6aR*)-2-[3-(trifluoromethyl)benzyl]octahydrocyclopenta[c]pyrrol-4-yl}propanamide] |
| 600 | O=S(=O)(N[C@H]1CC[C@H]2CN(Cc3cccc(C(F)(F)F)c3)C[C@H]21)c1cccc(C(F)(F)F)c1 (single isomer, unassigned) [Example 186, 3-(trifluoromethyl)-N-{(3aS*,4S*,6aR*)-2-[3-(trifluoromethyl)benzyl]octahydrocyclopenta[c]pyrrol-4-yl}benzenesulfonamide] |

Continued, compound first:

| SMILES | IC50 [nM] |
| --- | --- |
| O=C(N[C@H]1CC[C@H]2CN(Cc3ccccc3)C[C@H]21)C(C1CCCCC1)C1CCCCC1 (relative stereo) [Example 11, N-[(3aS*,4S*,6aR*)-2-benzyloctahydrocyclopenta[c]pyrrol-4-yl]-2,2-dicyclohexylacetamide] | 4000 |
| c1ccc(CN2C[C@@H]3CC[C@@H](NC4CC4)[C@@H]3C2)cc1 (relative stereo) [Example 197, (3aS*,4R*,6aR*)-2-benzyl-N-cyclopropyloctahydrocyclopenta[c]pyrrol-4-amine] | 69700 |
| c1ccc(CN2C[C@@H]3CC[C@H](NC4CC4)[C@@H]3C2)cc1 (relative stereo) [Example 198, (3aS*,4S*,6aR*)-2-benzyl-N-cyclopropyloctahydrocyclopenta[c]pyrrol-4-amine] | 40400 |
| O=S(=O)(c1cccc(C(F)(F)F)c1)N(C1CC1)[C@@H]1CC[C@H]2CN(Cc3ccccc3)C[C@H]21 (relative stereo) [Example 200, N-[(3aS*,4R*,6aR*)-2-benzyloctahydrocyclopenta[c]pyrrol-4-yl]-N-cyclopropyl-3-(trifluoromethyl)benzenesulfonamide] | 1000 |
| O=S(=O)(c1cccc(C(F)(F)F)c1)N(C1CC1)[C@H]1CC[C@H]2CNC[C@H]21 (relative stereo) [Example 201, N-cyclopropyl-N-[(3aS*,4S*,6aR*)-octahydrocyclopenta[c]pyrrol-4-yl]-3-(trifluoromethyl)benzenesulfonamide] | 5200 |
| O=C(N[C@@H]1CC[C@H]2CN(Cc3ccccc3)C[C@H]21)C(C1CCCCC1)C1CCCCC1 [Example 20, N-[(3aS,4R,6aR)-2-benzyloctahydrocyclopenta[c]pyrrol-4-yl]-2,2-dicyclohexylacetamide] | 1800 |

Same assay, conditions: IMR-32, @ 10 μM, 3 minute pre-incubation (*), read-out: percent inhibition

| SMILES | inhibition at 10 µM [%] |
| --- | --- |
| CC(C)C(C(=O)N1C[C@H]2CC[C@H](NCc3ccccc3)[C@H]2C1)c1ccccc1 (relative stereo) [Example 216, (3aR*,4S*,6aS*)-N-benzyl-2-(3-methyl-2-phenylbutanoyl)octahydrocyclopenta[c]pyrrol-4-amine] | 85 |
| C[C@H](C(=O)N[C@@H]1CC[C@H]2CN(Cc3ccccc3)C[C@H]21)c1ccccc1 [Example 19, (2S)—N-[(3aS,4R,6aR)-2-benzyloctahydrocyclopenta[c]pyrrol-4-yl]-2-phenylpropanamide] | 25 |

Same assay, conditions: IMR-32, @ 10 μM, 60 minute pre-incubation, read-out: percent inhibition

| SMILES | inhibition at 10 µM [%] |
| --- | --- |
| O=C(N[C@@H]1CC[C@@H]2CN(Cc3ccccc3)C[C@@H]21)C(c1ccccc1)C1CCCCC1 (relative stereo) [Example 3, N-[(3aR*,4R*,6aS*)-2-benzyloctahydrocyclopenta[c]pyrrol-4-yl]-2-cyclohexyl-2-phenylacetamide] | 91 |

Source: patent US8129417B2, “Substituted octahydrocyclopenta[C]pyrrol-4-amines as calcium channel blockers” (Abbott Laboratories, priority 2008, dated 2012)
